Measured values as given in patent US7087736B1, “Tyrosine DNA phosphodiesterases (TDP) and related polypeptides nucleic acids vectors TDP producing host cells antibodies and methods of use” (priority 1999, dated 2006).

System: Saccharomyces cervisiae strains (parental, enz mutant, HNY243, HNY244)
Assay: Sensitivity of yeast strains to killing by drug (colony survival after 24 hrs)
Assay type: cell-based
Excerpt: The strains were compared for sensitivity to killing by camptothecin. Despite the dramatic difference in TDP activity, the parental line and the backcrossed enz mutant were insensitive to camptothecin. When combined with a disruption of the RAD9 gene, the camptothecin sensitivity of the low activity mutant (strain HNY244) was increased by a factor of 12 relative to the rad9 derivative of the parental strain HNY243. The same difference was observed after the mutant had undergone two additional rounds of backcrossing. In order to confirm that camptothecin-induced damage was due to topoisomerase trapping, the TOP1 gene of HNY244 was disrupted and survival increased nearly 1,000-fold.
Each pool was separately grown and treated with camptothecin for 24 hours. Cells were grown to near-saturation in medium with glycerol in place of dextrose (YPG) to ensure a starting population with few or no petite derivatives in accordance with standard methods. These cells were resuspended at OD650=0.4 in YPD (bacto-yeast extract, peptone and dextrose standard yeast growth medium), grown for 2 hrs and diluted again in YPD to OD650=0.4. Drug was then added and samples were withdrawn immediately and after 24 hrs at 30° C. After dilution and plating on YPD, surviving colonies were counted after 3-4 days of growth. When plasmid-containing strains were assessed for camptothecin sensitivity, YPD was replaced throughout by uracil-deficient minimal medium to ensure plasmid retention. The survivors were amplified by growth in YPD.

SMILES | camptothecin sensitivity of YBR223c disruption strain (HNY243 with YBR223c ORF disrupted) | camptothecin resistance after transformation (HNY244 transformed with pNS2 or pAXb) | sensitivity to killing by camptothecin (backcrossed enz mutant (low TDP activity)) | increase of camptothecin sensitivity relative to rad9 derivative of parental strain HNY243 (low activity mutant with RAD9 disruption (strain HNY244)) [factor] | sensitivity to killing by camptothecin (parental line (normal TDP activity)) | increase of survival after disruption of TOP1 gene (strain HNY244 with TOP1 disrupted, camptothecin-induced damage) | sensitization of the mutant line to killing (low TDP activity mutant line)
CC[C@@]1(O)C(=O)OCc2c1cc1n(c2=O)Cc2cc3ccccc3nc2-1 [camptothecin] | very similar to that of HNY244 | improved camptothecin resistance | insensitive | 12 | insensitive | ~1,000 fold | 
COS(C)(=O)=O [methyl methane sulfonate] |  |  |  |  |  |  | not sensitized
